# Values quoted from earlier work as cited in patent publication US10086032B2, “Method for preparing a Camellia nitidissima Chi lipid-lowering and hypoglycemic agent” (Shenzhen Violin Technology Co., Ltd., priority 2014, dated 2018).
# Tested on: model rat with hyperlipidemia
# Conditions: high dose group; lovastatin 0.01 g/kg; 43 days intragastric gavage
smiles,measurement,value
CC[C@H](C)C(=O)O[C@H]1C[C@@H](C)C=C2C=C[C@H](C)[C@H](CC[C@@H]3C[C@@H](O)CC(=O)O3)[C@H]21 [lovastatin],HDL-C content of serum,enhance HDL-C content of serum in model rat with hyperlipidemia
